Test results as given in patent publication US8952024B2, “Herbicidal pyrimidone derivatives” (E I du Pont de Nemours and Company, priority 2009, dated 2015).

Experiments:
Assay type in all cases: in vivo
[1] = tested on: chickweed (Stellaria media); assay: Test B postemergence plant response; details: Postemergence
Outline: (§1)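 Visual ratings from 0 (no effect) to 100 (complete control), made against controls 13–15 days after treatment, kept in a greenhouse. Compounds were applied postemergence to potted plants at the 1- to 4-leaf stage (2–18 cm).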

[2] = tested on: windgrass (Apera spica-venti); assay: Test B postemergence plant response; details: Postemergence
Outline: as §1

[3] = tested on: canarygrass (Phalaris minor); assay: Test B postemergence plant response; details: Postemergence
Outline: as §1

[4] = tested on: johnsongrass (Sorghum halepense); assay: Test B pre-/postemergence plant response
Outline: (§2)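 Plants treated either at seeding (loam/sand soil) or postemergence at 2 to 18 cm height, using a surfactant-containing non-phytotoxic solvent formulation. Evaluation was visual after 13 to 15 days, 0 to 100 scale relative to controls.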

[5] = tested on: blackgrass (Alopecurus myosuroides); assay: Test B pre-/postemergence plant response
Outline: as §2

[6] = tested on: kochia (Kochia scoparia); assay: Test B pre-/postemergence plant response
Outline: as §2

[7] = tested on: velvetleaf (Abutilon theophrasti); assay: Test B pre-/postemergence plant response
Outline: as §2

[8] = tested on: bermudagrass (Cynodon dactylon); assay: Test B pre-/postemergence plant response
Outline: as §2

[9] = tested on: giant foxtail (Setaria faberii); assay: Test B pre-/postemergence plant response
Outline: as §2

[10] = tested on: morningglory (Ipomoea coccinea); assay: Test B pre-/postemergence plant response
Outline: as §2

[11] = tested on: yellow nutsedge (Cyperus esculentus); assay: Test B pre-/postemergence plant response
Outline: as §2

[12] = tested on: wheat (Triticum aestivum); assay: Test B pre-/postemergence plant response
Outline: as §2

[13] = tested on: wild oat (Avena fatua); assay: Test B pre-/postemergence plant response
Outline: as §2

[14] = tested on: green foxtail (Setaria viridis); assay: Test B pre-/postemergence plant response
Outline: as §2

[15] = tested on: soybean (Glycine max); assay: Test B pre-/postemergence plant response
Outline: as §2

[16] = tested on: ragweed (common ragweed, Ambrosia elatior); assay: Test B pre-/postemergence plant response
Outline: as §2

[17] = tested on: cocklebur (Xanthium strumarium); assay: Test B pre-/postemergence plant response
Outline: as §2

[18] = tested on: downy bromegrass (Bromus tectorum); assay: Test B pre-/postemergence plant response
Outline: as §2

[19] = 31 g ai/ha, scale 0 to 100 (0 no effect, 100 complete control)
[20] = 62 g ai/ha, scale 0 (no effect) to 100 (complete control), 13 to 15 days
[21] = 125 g ai/ha, visual rating after 13 to 15 days, scale 0 (no effect) to 100 (complete control)
[22] = 250 g ai/ha, Preemergence, 0 to 100 scale
[23] = Postemergence, 31 g ai/ha, scale 0 to 100 (0 no effect, 100 complete control)
[24] = Postemergence, 62 g ai/ha, scale 0 (no effect) to 100 (complete control), 13 to 15 days
[25] = Postemergence, 125 g ai/ha, visual rating after 13 to 15 days, scale 0 (no effect) to 100 (complete control)
[26] = Postemergence, 250 g ai/ha, scale 0 to 100
[27] = Preemergence, 31 g ai/ha, scale 0 to 100 (0 no effect, 100 complete control)
[28] = Preemergence, 62 g ai/ha, scale 0 to 100, 0 no effect, 100 complete control
[29] = Preemergence, 125 g ai/ha, 0 to 100 scale

“2-(3,5-difluorophenyl)-5-[(2-hydroxy-4-oxobicyclo[3.2.1]oct-2-en-3-yl)carbonyl]-3-(2-methoxyethyl)-4(3H)-pyrimidinone [Compound 243]” was tested, and the “Plant response rating, Chickweed” value [1, 19] was 20, the “Plant response rating, Chickweed” value [1, 20] was 85 and the “Plant response rating, Chickweed” value [1, 21] was 95. For the same substance, the “Chickweed plant response rating” value ([1]; 250 g ai/ha, scale 0 to 100) was 98, the “Plant response rating, Windgrass” value [2, 19] was 50 and the “Plant response rating, Windgrass” value [2, 20] was 55. For the same substance, the “Plant response rating, Windgrass” value [2, 21] was 60, the “Windgrass plant response rating” value ([2]; 250 g ai/ha, scale 0 to 100) was 80 and the “Plant response rating, Canarygrass” value [3, 19] was 5. For the same substance, the “Plant response rating, Canarygrass” value [3, 20] was 25, the “Plant response rating, Canarygrass” value [3, 21] was 50 and the “Canarygrass plant response rating” value ([3]; 250 g ai/ha, scale 0 to 100) was 60. The “Plant response rating, Johnsongrass” value [4, 22] was 98, the “Plant response rating, Johnsongrass” value [4, 23] was 60 and the “Plant response rating, Johnsongrass” value [4, 24] was 70. The “Plant response rating, Johnsongrass” value [4, 25] was 85, the “Johnsongrass plant response rating” value [4, 26] was 95 and the “Plant response rating, Johnsongrass” value [4, 27] was 0. The “Plant response rating, Johnsongrass” value [4, 28] was 85, the “Johnsongrass plant response rating” value [4, 29] was 90 and the “Plant response rating, Blackgrass” value [5, 22] was 40. For the same substance, the “Plant response rating, Blackgrass” value [5, 23] was 0, the “Plant response rating, Blackgrass” value [5, 24] was 0 and the “Plant response rating, Blackgrass” value [5, 25] was 40. For the same substance, the “Blackgrass plant response rating” value [5, 26] was 70, the “Plant response rating, Blackgrass” value [5, 27] was 0 and the “Plant response rating, Blackgrass” value [5, 28] was 0. For the same substance, the “Blackgrass plant response rating” value [5, 29] was 20, the “Plant response rating, Kochia” value [6, 22] was 100 and the “Plant response rating, Kochia” value [6, 23] was 10. For the same substance, the “Plant response rating, Kochia” value [6, 24] was 15, the “Plant response rating, Kochia” value [6, 25] was 25 and the “Kochia plant response rating” value [6, 26] was 85. The “Plant response rating, Kochia” value [6, 27] was 15, the “Plant response rating, Kochia” value [6, 28] was 100 and the “Kochia plant response rating” value [6, 29] was 100. For the same substance, the “Plant response rating, Velvetleaf” value [7, 22] was 100, the “Plant response rating, Velvetleaf” value [7, 23] was 85 and the “Plant response rating, Velvetleaf” value [7, 24] was 85. For the same substance, the “Plant response rating, Velvetleaf” value [7, 25] was 90, the “Velvetleaf plant response rating” value [7, 26] was 98 and the “Plant response rating, Velvetleaf” value [7, 27] was 98. The “Plant response rating, Velvetleaf” value [7, 28] was 100, the “Velvetleaf plant response rating” value [7, 29] was 100 and the “Plant response rating, Bermudagrass” value [8, 22] was 100. For the same substance, the “Plant response rating, Bermudagrass” value [8, 23] was 90, the “Plant response rating, Bermudagrass” value [8, 24] was 95 and the “Plant response rating, Bermudagrass” value ([8]; Postemergence, 125 g ai/ha, scale 0 to 100 (0 no effect, 100 complete control), 13 to 15 days) was 98. The “Bermudagrass plant response rating” value [8, 26] was 98, the “Plant response rating, Bermudagrass” value [8, 27] was 98 and the “Plant response rating, Bermudagrass” value [8, 28] was 100. For the same substance, the “Bermudagrass plant response rating” value [8, 29] was 100, the “Plant response rating, Foxtail, Giant” value [9, 22] was 98 and the “Plant response rating, Foxtail, Giant” value [9, 23] was 75. For the same substance, the “Plant response rating, Foxtail, Giant” value [9, 24] was 85, the “Plant response rating, Foxtail, Giant” value [9, 25] was 95 and the “Foxtail, Giant plant response rating” value [9, 26] was 100. The “Plant response rating, Foxtail, Giant” value [9, 27] was 0, the “Plant response rating, Foxtail, Giant” value [9, 28] was 15 and the “Foxtail, Giant plant response rating” value [9, 29] was 60. For the same substance, the “Plant response rating, Morningglory” value [10, 22] was 98, the “Plant response rating, Morningglory” value [10, 23] was 45 and the “Plant response rating, Morningglory” value [10, 24] was 45. For the same substance, the “Plant response rating, Morningglory” value [10, 25] was 70, the “Morningglory plant response rating” value [10, 26] was 75 and the “Plant response rating, Morningglory” value [10, 27] was 0. For the same substance, the “Plant response rating, Morningglory” value [10, 28] was 40, the “Morningglory plant response rating” value [10, 29] was 70 and the “Plant response rating, Nutsedge, Yellow” value [11, 22] was 95. The “Plant response rating, Nutsedge, Yellow” value [11, 23] was 20, the “Plant response rating, Nutsedge, Yellow” value [11, 24] was 25 and the “Plant response rating, Nutsedge, Yellow” value [11, 25] was 60. The “Nutsedge, Yellow plant response rating” value [11, 26] was 70, the “Plant response rating, Nutsedge, Yellow” value [11, 27] was 0 and the “Plant response rating, Nutsedge, Yellow” value [11, 28] was 45. The “Nutsedge, Yellow plant response rating” value [11, 29] was 80, the “Plant response rating, Wheat” value [12, 22] was 5 and the “Plant response rating, Wheat” value [12, 23] was 0. The “Plant response rating, Wheat” value [12, 24] was 5, the “Plant response rating, Wheat” value [12, 25] was 30 and the “Wheat plant response rating” value [12, 26] was 30. The “Plant response rating, Wheat” value [12, 27] was 0, the “Plant response rating, Wheat” value [12, 28] was 0 and the “Wheat plant response rating” value [12, 29] was 0. The “Plant response rating, Oat, Wild” value [13, 22] was 60, the “Plant response rating, Oat, Wild” value [13, 23] was 0 and the “Plant response rating, Oat, Wild” value [13, 24] was 5. The “Plant response rating, Oat, Wild” value [13, 25] was 40, the “Oat, Wild plant response rating” value [13, 26] was 55 and the “Plant response rating, Oat, Wild” value [13, 27] was 0. The “Plant response rating, Oat, Wild” value [13, 28] was 0, the “Oat, Wild plant response rating” value [13, 29] was 0 and the “Plant response rating, Foxtail, Green” value [14, 23] was 35. For the same substance, the “Plant response rating, Foxtail, Green” value [14, 24] was 40, the “Plant response rating, Foxtail, Green” value [14, 25] was 80 and the “Foxtail, Green plant response rating” value [14, 26] was 95. The “Plant response rating, Foxtail, Green” value [14, 27] was 0, the “Plant response rating, Foxtail, Green” value [14, 28] was 0 and the “Foxtail, Green plant response rating” value [14, 29] was 5. The “Plant response rating, Soybean” value [15, 22] was 80, the “Plant response rating, Soybean” value [15, 23] was 70 and the “Plant response rating, Soybean” value [15, 24] was 75. The “Plant response rating, Soybean” value [15, 25] was 85, the “Soybean plant response rating” value [15, 26] was 98 and the “Plant response rating, Soybean” value [15, 27] was 0. The “Plant response rating, Soybean” value [15, 28] was 10, the “Plant response rating, Ragweed” value [16, 22] was 100 and the “Plant response rating, Ragweed” value [16, 23] was 70. The “Plant response rating, Ragweed” value [16, 24] was 75, the “Plant response rating, Ragweed” value [16, 25] was 75 and the “Ragweed plant response rating” value [16, 26] was 100. The “Plant response rating, Ragweed” value [16, 27] was 55, the “Plant response rating, Ragweed” value [16, 28] was 90 and the “Ragweed plant response rating” value [16, 29] was 100. For the same substance, the “Plant response rating, Cocklebur” value [17, 22] was 100, the “Plant response rating, Cocklebur” value [17, 23] was 0 and the “Plant response rating, Cocklebur” value [17, 24] was 0. For the same substance, the “Plant response rating, Cocklebur” value [17, 25] was 35, the “Cocklebur plant response rating” value [17, 26] was 45 and the “Plant response rating, Cocklebur” value [17, 27] was 0. The “Plant response rating, Cocklebur” value [17, 28] was 25, the “Cocklebur plant response rating” value [17, 29] was 65 and the “Plant response rating, Bromegrass, Downy” value [18, 22] was 10. For the same substance, the “Plant response rating, Bromegrass, Downy” value [18, 23] was 5, the “Plant response rating, Bromegrass, Downy” value [18, 24] was 30 and the “Plant response rating, Bromegrass, Downy” value [18, 25] was 40. The “Bromegrass, Downy plant response rating” value [18, 26] was 50, the “Plant response rating, Bromegrass, Downy” value [18, 27] was 0 and the “Plant response rating, Bromegrass, Downy” value [18, 28] was 0. The “Bromegrass, Downy plant response rating” value [18, 29] was 5.
